Results published in ChEMBL document CHEMBL1201862, “PubChem BioAssay data set” (2004).
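A five-concentration, 48-hour dose response in 96-well plates underlies each endpoint, interpolated linearly between surrounding concentrations. GI50: concentration for 50% inhibition of growth.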 Activity calls are given as the source filed them. Rule as the data show it: active = GI50 up to about 1.1 µM and inactive = higher.

Columns and labels:
Experiment in all cases: growth of human tumour cells (NCI), 48 h
SF-539 = system: SF-539
HCT-116 = system: HCT-116
ACHN = system: ACHN
UACC-257 = system: UACC-257
SNB-75 = system: SNB-75
U-251 = system: U-251
LOX IMVI = system: LOX IMVI
HL-60 = system: HL-60
OVCAR-5 = system: OVCAR-5
HOP-62 = system: HOP-62
OVCAR-4 = system: OVCAR-4
M14 = system: M14
OVCAR-3 = system: OVCAR-3
HCC 2998 = system: HCC 2998
SK-OV-3 = system: SK-OV-3
HT-29 = system: HT-29
SK-MEL-2 = system: SK-MEL-2
K562 = system: K562
NCI/ADR-RES = system: NCI/ADR-RES

| SMILES | GI50 (SF-539) | GI50 (HCT-116) | GI50 (ACHN) | GI50 (UACC-257) | GI50 (SNB-75) | GI50 (U-251) | GI50 (LOX IMVI) | GI50 (HL-60) | GI50 (OVCAR-5) | GI50 (HOP-62) | GI50 (OVCAR-4) | GI50 (M14) | GI50 (OVCAR-3) | GI50 (HCC 2998) | GI50 (SK-OV-3) | GI50 (HT-29) | GI50 (SK-MEL-2) | GI50 (K562) | GI50 (NCI/ADR-RES) |
| --- | --- | --- | --- | --- | --- | --- | --- | --- | --- | --- | --- | --- | --- | --- | --- | --- | --- | --- | --- |
| CN1CCOC(c2ccccc2)O1 (stereo unspecified) | > 100 µM (inactive) | > 100 µM (inactive) | > 100 µM (inactive) | > 100 µM (inactive) | > 100 µM (inactive) | > 100 µM (inactive) | > 100 µM (inactive) | > 100 µM (inactive) | > 100 µM (inactive) | > 100 µM (inactive) | > 100 µM (inactive) | > 100 µM (inactive) | > 100 µM (inactive) | > 100 µM (inactive) | > 100 µM (inactive) | > 100 µM (inactive) | > 100 µM (inactive) | > 100 µM (inactive) | – |
| CC1OC(CC(=O)O)Cc2c(O)c3c(c(O)c21)C(=O)C=C(C1=CC(=O)c2c(O)c4c(c(O)c2C1=O)CC(CC(=O)O)OC4C)C3=O (stereo unspecified) | 19.1 µM (inactive) | 10.9 µM (inactive) | 26.1 µM (inactive) | 13.4 µM (inactive) | 59.6 µM (inactive) | 26.1 µM (inactive) | 16.5 µM (inactive) | 3.03 µM (inactive) | 43.8 µM (inactive) | > 100 µM (inactive) | 17.3 µM (inactive) | 15 µM (inactive) | 27 µM (inactive) | 46.3 µM (inactive) | > 100 µM (inactive) | 18.5 µM (inactive) | 21.2 µM (inactive) | 9.4 µM (inactive) | – |
| CC(=O)C(=C(I)I)c1ccccc1 | 21.1 µM (inactive) | 15.4 µM (inactive) | 18.3 µM (inactive) | 16.7 µM (inactive) | – | 17.5 µM (inactive) | 18.1 µM (inactive) | 24.7 µM (inactive) | 23.3 µM (inactive) | 20.9 µM (inactive) | 16.1 µM (inactive) | 14.5 µM (inactive) | 16.7 µM (inactive) | 24.5 µM (inactive) | 41.9 µM (inactive) | 17.9 µM (inactive) | 21.8 µM (inactive) | 15 µM (inactive) | 21.1 µM (inactive) |
| C=CC[C@H]1O[Si](C(C)(C)C)(C(C)(C)C)[C@H](C)[C@H]1C | > 100 µM (inactive) | > 100 µM (inactive) | 39.4 µM (inactive) | > 100 µM (inactive) | > 100 µM (inactive) | > 100 µM (inactive) | > 100 µM (inactive) | > 100 µM (inactive) | > 100 µM (inactive) | > 100 µM (inactive) | > 100 µM (inactive) | > 100 µM (inactive) | > 100 µM (inactive) | > 100 µM (inactive) | > 100 µM (inactive) | > 100 µM (inactive) | > 100 µM (inactive) | > 100 µM (inactive) | > 100 µM (inactive) |
| SCCSCCCSCCS | > 100 µM (inactive) | > 100 µM (inactive) | – | 59.3 µM (inactive) | 59.3 µM (inactive) | > 100 µM (inactive) | 47.5 µM (inactive) | 9.31 µM (inactive) | > 100 µM (inactive) | > 100 µM (inactive) | 14 µM (inactive) | 74.6 µM (inactive) | 76.4 µM (inactive) | > 100 µM (inactive) | > 100 µM (inactive) | > 100 µM (inactive) | – | 92.7 µM (inactive) | > 100 µM (inactive) |
| Oc1ccc(N=C2CCC(=C(c3ccccc3)c3ccc(Nc4ccc(O)cc4)cc3)CC2)cc1 | 46.1 µM (inactive) | 39.4 µM (inactive) | 67.1 µM (inactive) | > 100 µM (inactive) | – | 47.3 µM (inactive) | 73.3 µM (inactive) | – | > 100 µM (inactive) | – | 86.5 µM (inactive) | > 100 µM (inactive) | – | 64.3 µM (inactive) | 62.1 µM (inactive) | 48.8 µM (inactive) | 77.6 µM (inactive) | > 100 µM (inactive) | 80.9 µM (inactive) |
| COc1ccccc1NS(=O)(=O)c1cc(C(C)(C)C)ccc1OCCOc1ccc(C(C)(C)C)cc1S(=O)(=O)Nc1ccccc1OC | > 100 µM (inactive) | > 100 µM (inactive) | > 100 µM (inactive) | > 100 µM (inactive) | > 100 µM (inactive) | > 100 µM (inactive) | > 100 µM (inactive) | > 100 µM (inactive) | > 100 µM (inactive) | > 100 µM (inactive) | > 100 µM (inactive) | > 100 µM (inactive) | > 100 µM (inactive) | > 100 µM (inactive) | > 100 µM (inactive) | > 100 µM (inactive) | > 100 µM (inactive) | > 100 µM (inactive) | – |
| O=C1C=C(Nc2ccc(Cl)cc2C(=O)c2ccccc2)c2ccccc2C1=O | > 100 µM (inactive) | > 100 µM (inactive) | > 100 µM (inactive) | > 100 µM (inactive) | > 100 µM (inactive) | > 100 µM (inactive) | > 100 µM (inactive) | > 100 µM (inactive) | > 100 µM (inactive) | > 100 µM (inactive) | > 100 µM (inactive) | > 100 µM (inactive) | > 100 µM (inactive) | > 100 µM (inactive) | > 100 µM (inactive) | > 100 µM (inactive) | > 100 µM (inactive) | > 100 µM (inactive) | – |
| CN(C)CCN(C)CC1COC(C)(C)O1 (stereo unspecified) | > 100 µM (inactive) | > 100 µM (inactive) | > 100 µM (inactive) | > 100 µM (inactive) | > 100 µM (inactive) | > 100 µM (inactive) | > 100 µM (inactive) | > 100 µM (inactive) | > 100 µM (inactive) | > 100 µM (inactive) | > 100 µM (inactive) | > 100 µM (inactive) | > 100 µM (inactive) | > 100 µM (inactive) | > 100 µM (inactive) | > 100 µM (inactive) | > 100 µM (inactive) | > 100 µM (inactive) | – |
| Cc1ccc(-c2c(C#N)c(O)n(NS(=O)(=O)c3ccccc3)c(=O)c2C#N)cc1 | > 100 µM (inactive) | > 100 µM (inactive) | > 100 µM (inactive) | > 100 µM (inactive) | > 100 µM (inactive) | > 100 µM (inactive) | > 100 µM (inactive) | > 100 µM (inactive) | > 100 µM (inactive) | > 100 µM (inactive) | > 100 µM (inactive) | > 100 µM (inactive) | – | > 100 µM (inactive) | > 100 µM (inactive) | > 100 µM (inactive) | > 100 µM (inactive) | > 100 µM (inactive) | > 100 µM (inactive) |
| CN(C)CCNc1ccc(CO)c2sc3ccc(O)cc3c(=O)c12 | 0.459 µM (active) | 1.12 µM (inactive) | 0.351 µM (active) | 5.24 µM (inactive) | 2.42 µM (inactive) | 0.783 µM (active) | 1.11 µM (active) | 0.258 µM (active) | 5.26 µM (inactive) | 0.204 µM (active) | 4.63 µM (inactive) | 3.01 µM (inactive) | 10.6 µM (inactive) | 2.58 µM (inactive) | 1.76 µM (inactive) | 2.3 µM (inactive) | 5.21 µM (inactive) | 2.06 µM (inactive) | 3.28 µM (inactive) |
